Reference: US20160122315A1, “CRYSTALLINE IMATINIB MESYLATE PROCESS” (SHILPA MEDICARE LIMITED, priority 2013, published 2016)
Like-named read-outs stand apart in the source and are kept apart here.

Legend:
[1] = Hygroscopicity of crystalline Form-SA; type: physicochemical; conditions: crystalline solid
[2] = crystal forms disclosed by Zimmermann et al, U.S.'051; cited from earlier work
[3] = compared with the α-crystal form; disclosed in U.S.'051; cited from earlier work

Row | Compound | hygroscopicity [1] | hygroscopicity [2] | thermodynamic stability [3]
1 | Cc1ccc(NC(=O)c2ccc(CN3CCN(C)CC3)cc2)cc1Nc1nccc(-c2cccnc2)n1 [Form-SA, 4-[(4-Methyl-1-piperazinyl)methyl]-N-[4-methyl-3-[[4-(3-pyridinyl)-2-pyrimidinyl]amino]-phenyl]benzamide methanesulfonate] | non-hygroscopic | – | –
2 | CS(=O)(=O)O.Cc1ccc(NC(=O)c2ccc(CN3CCN(C)CC3)cc2)cc1Nc1nccc(-c2cccnc2)n1 [a-crystal form] | – | hygroscopic | –
3 | CS(=O)(=O)O.Cc1ccc(NC(=O)c2ccc(CN3CCN(C)CC3)cc2)cc1Nc1nccc(-c2cccnc2)n1 [β-crystal form] | – | less hygroscopic than the α-crystal form | thermodynamically more stable at temperatures below 140 °C
